Reference: PubChem BioAssay (NCI)
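Assay format: 96-well plates, 48-hour exposure. GI50: concentration for 50% inhibition of growth. TGI marks complete inhibition of growth.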

Experiments:
Test in all cases: NCI-60 cell line screen, 48 h
NCI-H460 lung = system: NCI-H460 lung
NCI/ADR-RES ovarian = system: NCI/ADR-RES ovarian
786-0 renal = system: 786-0 renal
SNB-75 CNS = system: SNB-75 CNS
HCC-2998 colon = system: HCC-2998 colon
MDA-MB-435 = system: MDA-MB-435
SK-MEL-5 melanoma = system: SK-MEL-5 melanoma
EKVX NSCLC = system: EKVX NSCLC
IGROV1 ovarian = system: IGROV1 ovarian
CAKI-1 renal = system: CAKI-1 renal
HL-60(TB) leukemia = system: HL-60(TB) leukemia
MALME-3M melanoma = system: MALME-3M melanoma
MCF7 breast = system: MCF7 breast
OVCAR-8 ovarian = system: OVCAR-8 ovarian
SR leukemia = system: SR leukemia
SNB-19 CNS = system: SNB-19 CNS
BT-549 breast = system: BT-549 breast
U251 CNS = system: U251 CNS
CCRF-CEM leukemia = system: CCRF-CEM leukemia
HCT-116 colon = system: HCT-116 colon
MOLT-4 leukemia = system: MOLT-4 leukemia
NCI-H23 lung = system: NCI-H23 lung
SF-268 CNS = system: SF-268 CNS
SK-MEL-28 melanoma = system: SK-MEL-28 melanoma
RXF 393 renal = system: RXF 393 renal
T-47D breast = system: T-47D breast
UACC-62 melanoma = system: UACC-62 melanoma
MDA-MB-231 breast = system: MDA-MB-231 breast
NCI-H522 lung = system: NCI-H522 lung
UO-31 renal = system: UO-31 renal
OVCAR-4 ovarian = system: OVCAR-4 ovarian
A498 renal = system: A498 renal
UACC-257 melanoma = system: UACC-257 melanoma
HOP-92 NSCLC = system: HOP-92 NSCLC
DU-145 prostate = system: DU-145 prostate
A549 NSCLC = system: A549 NSCLC
SK-MEL-2 melanoma = system: SK-MEL-2 melanoma
OVCAR-3 ovarian = system: OVCAR-3 ovarian
TK-10 renal = system: TK-10 renal
NCI-H226 lung = system: NCI-H226 lung
OVCAR-5 ovarian = system: OVCAR-5 ovarian
HT29 colon = system: HT29 colon
COLO 205 colon = system: COLO 205 colon
ACHN renal = system: ACHN renal
SN12C renal = system: SN12C renal
SW-620 colon = system: SW-620 colon
LOX IMVI melanoma = system: LOX IMVI melanoma
RPMI-8226 leukemia = system: RPMI-8226 leukemia
HS 578T breast = system: HS 578T breast
SF-295 CNS = system: SF-295 CNS
HCT-15 colon = system: HCT-15 colon
KM12 colon = system: KM12 colon
K-562 leukemia = system: K-562 leukemia
PC-3 prostate = system: PC-3 prostate
SK-OV-3 ovarian = system: SK-OV-3 ovarian
SF-539 CNS = system: SF-539 CNS
HOP-62 NSCLC = system: HOP-62 NSCLC
M14 melanoma = system: M14 melanoma

With `O=C(CCCSc1nc(-c2ccccc2)cc(-c2ccc(Cl)cc2)n1)NO` the GI50 (NCI-H460 lung) was 558 nM, the TGI (NCI-H460 lung) was 7.29 µM and the GI50 (NCI/ADR-RES ovarian) was 351 nM. For the same compound, the TGI (NCI/ADR-RES ovarian) was 2.58 µM, the GI50 (786-0 renal) was 1470 nM and the TGI (786-0 renal) was 13.3 µM. It also gave a GI50 (SNB-75 CNS) of 2080 nM, a TGI (SNB-75 CNS) of 10.4 µM and a GI50 (HCC-2998 colon) of 3.03 µM. For the same compound, the TGI (HCC-2998 colon) was 13.2 µM, the GI50 (MDA-MB-435) was 3.11 µM and the TGI (MDA-MB-435) was 14.8 µM. The GI50 (SK-MEL-5 melanoma) was 2260 nM, the TGI (SK-MEL-5 melanoma) was 5.45 µM and the GI50 (EKVX NSCLC) was 1800 nM. It also gave a TGI (EKVX NSCLC) of 11.5 µM, a GI50 (IGROV1 ovarian) of 2080 nM and a TGI (IGROV1 ovarian) of 11.7 µM. It also gave a GI50 (CAKI-1 renal) of 355 nM, a TGI (CAKI-1 renal) of 9.36 µM and a GI50 (HL-60(TB) leukemia) of 2350 nM. The TGI (HL-60(TB) leukemia) was 9.26 µM, the GI50 (MALME-3M melanoma) was 2700 nM and the TGI (MALME-3M melanoma) was 12.1 µM. For the same compound, the GI50 (MCF7 breast) was 2290 nM, the TGI (MCF7 breast) was 12.4 µM and the GI50 (OVCAR-8 ovarian) was 596 nM. For the same compound, the TGI (OVCAR-8 ovarian) was 16.2 µM, the GI50 (SR leukemia) was 364 nM and the TGI (SR leukemia) was 13.2 µM. For the same compound, the GI50 (SNB-19 CNS) was 3.12 µM, the TGI (SNB-19 CNS) was 14.9 µM and the GI50 (BT-549 breast) was 3.46 µM. For the same compound, the TGI (BT-549 breast) was 17.6 µM, the GI50 (U251 CNS) was 1660 nM and the TGI (U251 CNS) was 12.7 µM. It also gave a GI50 (CCRF-CEM leukemia) of 882 nM, a TGI (CCRF-CEM leukemia) of 13 µM and a GI50 (HCT-116 colon) of 1040 nM. The TGI (HCT-116 colon) was 13.1 µM, the GI50 (MOLT-4 leukemia) was 1510 nM and the TGI (MOLT-4 leukemia) was 10.6 µM. For the same compound, the GI50 (NCI-H23 lung) was 2440 nM, the TGI (NCI-H23 lung) was 10.6 µM and the GI50 (SF-268 CNS) was 1880 nM. It also gave a TGI (SF-268 CNS) of 7.14 µM, a GI50 (SK-MEL-28 melanoma) of 3.51 µM and a TGI (SK-MEL-28 melanoma) of 15.3 µM. For the same compound, the GI50 (RXF 393 renal) was 445 nM, the TGI (RXF 393 renal) was 2.55 µM and the GI50 (T-47D breast) was 1920 nM. For the same compound, the TGI (T-47D breast) was 16.2 µM, the GI50 (UACC-62 melanoma) was 1450 nM and the TGI (UACC-62 melanoma) was 3.89 µM. It also gave a GI50 (MDA-MB-231 breast) of 2120 nM, a TGI (MDA-MB-231 breast) of 11.6 µM and a GI50 (NCI-H522 lung) of 1960 nM. It also gave a TGI (NCI-H522 lung) of 10.4 µM, a GI50 (UO-31 renal) of 352 nM and a TGI (UO-31 renal) of 2.1 µM. For the same compound, the GI50 (OVCAR-4 ovarian) was 1120 nM, the TGI (OVCAR-4 ovarian) was 14.4 µM and the GI50 (A498 renal) was 1700 nM. For the same compound, the TGI (A498 renal) was 4.7 µM, the GI50 (UACC-257 melanoma) was 2920 nM and the TGI (UACC-257 melanoma) was 12.4 µM. The GI50 (HOP-92 NSCLC) was 2290 nM, the TGI (HOP-92 NSCLC) was 8.26 µM and the GI50 (DU-145 prostate) was 1390 nM. The TGI (DU-145 prostate) was 8.94 µM, the GI50 (A549 NSCLC) was 2310 nM and the TGI (A549 NSCLC) was 12.4 µM. For the same compound, the GI50 (SK-MEL-2 melanoma) was 4.39 µM, the TGI (SK-MEL-2 melanoma) was 18.5 µM and the GI50 (OVCAR-3 ovarian) was 675 nM. The TGI (OVCAR-3 ovarian) was 9.38 µM, the GI50 (TK-10 renal) was 773 nM and the TGI (TK-10 renal) was 12.3 µM. The GI50 (NCI-H226 lung) was 3.12 µM, the TGI (NCI-H226 lung) was 17.1 µM and the GI50 (OVCAR-5 ovarian) was 2120 nM. It also gave a TGI (OVCAR-5 ovarian) of 8.48 µM, a GI50 (HT29 colon) of 2470 nM and a TGI (HT29 colon) of 13.2 µM. For the same compound, the GI50 (COLO 205 colon) was 2900 nM, the TGI (COLO 205 colon) was 12.1 µM and the GI50 (ACHN renal) was 399 nM. The TGI (ACHN renal) was 4.38 µM, the GI50 (SN12C renal) was 1180 nM and the TGI (SN12C renal) was 7.72 µM. It also gave a GI50 (SW-620 colon) of 1660 nM, a TGI (SW-620 colon) of 13 µM and a GI50 (LOX IMVI melanoma) of 414 nM. For the same compound, the TGI (LOX IMVI melanoma) was 1.87 µM, the GI50 (RPMI-8226 leukemia) was 1650 nM and the TGI (RPMI-8226 leukemia) was 8.42 µM. For the same compound, the GI50 (HS 578T breast) was 4.78 µM, the TGI (HS 578T breast) was 24 µM and the GI50 (SF-295 CNS) was 2030 nM. For the same compound, the TGI (SF-295 CNS) was 5.71 µM, the GI50 (HCT-15 colon) was 382 nM and the TGI (HCT-15 colon) was 13.5 µM. The GI50 (KM12 colon) was 2960 nM, the TGI (KM12 colon) was 14.2 µM and the GI50 (K-562 leukemia) was 1510 nM. For the same compound, the TGI (K-562 leukemia) was 26.1 µM, the GI50 (PC-3 prostate) was 2190 nM and the TGI (PC-3 prostate) was 12.3 µM. It also gave a GI50 (SK-OV-3 ovarian) of 3.12 µM, a TGI (SK-OV-3 ovarian) of 12.4 µM and a GI50 (SF-539 CNS) of 1610 nM. For the same compound, the TGI (SF-539 CNS) was 4.06 µM, the GI50 (HOP-62 NSCLC) was 1040 nM and the TGI (HOP-62 NSCLC) was 17.4 µM.

`CCOc1ccc(NCC2CC/C(=C\c3ccc(O)cc3)C2=O)cc1` (stereo unspecified) was tested, and the TGI (NCI-H460 lung) was 54.2 µM, the TGI (NCI/ADR-RES ovarian) was 36.9 µM and the TGI (786-0 renal) was 18 µM. It also gave a TGI (SNB-75 CNS) of 27.8 µM, a TGI (HCC-2998 colon) of 34 µM and a TGI (MDA-MB-435) of 35.8 µM. The TGI (SK-MEL-5 melanoma) was 33.8 µM, the TGI (EKVX NSCLC) was 39.5 µM and the TGI (IGROV1 ovarian) was 33.9 µM. It also gave a TGI (CAKI-1 renal) of 34.3 µM, a TGI (HL-60(TB) leukemia) of 5.33 µM and a TGI (MALME-3M melanoma) of 28.5 µM. For the same compound, the TGI (MCF7 breast) was 18.1 µM, the TGI (OVCAR-8 ovarian) was 34.4 µM and the TGI (SR leukemia) was 5.13 µM. For the same compound, the TGI (SNB-19 CNS) was > 55.2 µM, the TGI (BT-549 breast) was 25.6 µM and the TGI (U251 CNS) was 30.7 µM. For the same compound, the TGI (CCRF-CEM leukemia) was 49 µM, the TGI (HCT-116 colon) was 23.6 µM and the TGI (MOLT-4 leukemia) was > 38.4 µM. It also gave a TGI (NCI-H23 lung) of 50.4 µM, a TGI (SF-268 CNS) of 30.8 µM and a TGI (SK-MEL-28 melanoma) of 29.2 µM. It also gave a TGI (RXF 393 renal) of 32.7 µM, a TGI (T-47D breast) of 62.2 µM and a TGI (UACC-62 melanoma) of 37.7 µM. The TGI (MDA-MB-231 breast) was 38.4 µM, the TGI (NCI-H522 lung) was 11.7 µM and the TGI (UO-31 renal) was 33.6 µM. The TGI (OVCAR-4 ovarian) was 31.5 µM, the TGI (A498 renal) was 38.9 µM and the TGI (UACC-257 melanoma) was 30.7 µM. The TGI (HOP-92 NSCLC) was 30 µM, the TGI (DU-145 prostate) was > 59.9 µM and the TGI (A549 NSCLC) was 48.6 µM. The TGI (OVCAR-3 ovarian) was 25.5 µM, the TGI (TK-10 renal) was 26.2 µM and the TGI (NCI-H226 lung) was > 61.2 µM. For the same compound, the TGI (OVCAR-5 ovarian) was 29 µM, the TGI (HT29 colon) was 33 µM and the TGI (COLO 205 colon) was 28.6 µM. The TGI (ACHN renal) was 31.2 µM, the TGI (SN12C renal) was 35.6 µM and the TGI (SW-620 colon) was 27.1 µM. The TGI (LOX IMVI melanoma) was 16.8 µM, the TGI (RPMI-8226 leukemia) was > 25.3 µM and the TGI (M14 melanoma) was 36 µM. The TGI (HS 578T breast) was 73.7 µM, the TGI (SF-295 CNS) was > 54.6 µM and the TGI (HCT-15 colon) was 17.8 µM. The TGI (KM12 colon) was 26.8 µM, the TGI (K-562 leukemia) was > 100 µM and the TGI (PC-3 prostate) was 30.7 µM. The TGI (SK-OV-3 ovarian) was > 58.5 µM, the TGI (SF-539 CNS) was 36.1 µM and the TGI (HOP-62 NSCLC) was > 67.1 µM.
